Experimental data as given in publication PMC9299836 (eLife, 2022).
Values joined by “and” are separate entries in the source; they are usually repeats but may differ in a detail not shown here. Equal entries are not always repeated.

Assays:
mGluR2 [1] = target: mGluR2 (Mus musculus, UniProt Q14BI2, INS715F); assay: Live-cell FRET, azi-ECL2 (7TM domain, extracellular loop 2) sensor in HEK293T cells; settings: for Mean normalized azi-ECL2 FRET response: glutamate + 10μM modulator, maximal response normalized to 1mM glutamate;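 as to all read-outs here: Cy3/Cy5 click-labeled sensor, whole-membrane ROIs per cell, apparent FRET after bleed-through correction, ΔFRET as treatment minus pre-treatment signal, at room temperature, at least three biological replicates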
mGluR2 [2] = target: T1, mGluR2 (Mus musculus, UniProt Q14BI2); assay: Functional calcium imaging, SNAP-mGluR2 (no FLAG-tag) with chimeric G protein Gqo5 in HEK293T cells; format: cell-based; design: Full length mGluR2 construct with an amber codon (TAG) mutation of amino acid A548 (azi-CRD) or N-terminal SNAP-tag (SNAP-mGluR2); host or cells: HEK293T; settings: for Intracellular Ca2+ Response (normalized to 1mM glutamate), Mean: Glutamate + 15nM MNI-137
mGluR2 [3] = target: mGluR2 (Mus musculus, UniProt Q14BI2, A548F); assay: Live-cell FRET, azi-CRD (cysteine-rich domain) sensor in HEK293T cells; settings: for azi-CRD normalized FRET response, Mean / azi-CRD normalized FRET response, individual cell: Glutamate + 10μM modulator (NAM); for azi-CRD normalized FRET response, Mean: maximal response normalized to 1mM glutamate; for azi-CRD normalized FRET response, individual cell: single-cell replicate
mGluR2 [4] = target: T1, mGluR2; assay: Live-cell FRET, SNAP-m2 (VFT domain) inter-subunit sensor in HEK293T cells; settings: for Mean normalized FRET response, SNAP-m2 NAM DRC: glutamate + 10μM modulator, maximal response normalized to 1mM glutamate;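 as to all read-outs here: apparent FRET efficiency from whole-membrane ROIs of single cells, corrected for donor bleed-through and background, ΔFRET as treatment minus pretreatment signal, recorded at room temperature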
[5] = 10μM MNI-137, ([1 mM glutamate + modulator] - [1 mM glutamate]) × 100

Sequence of mGluR2 (Mus musculus, UniProt Q14BI2, INS715F) (Q14BI2 with tags, fused parts or gaps INS715F): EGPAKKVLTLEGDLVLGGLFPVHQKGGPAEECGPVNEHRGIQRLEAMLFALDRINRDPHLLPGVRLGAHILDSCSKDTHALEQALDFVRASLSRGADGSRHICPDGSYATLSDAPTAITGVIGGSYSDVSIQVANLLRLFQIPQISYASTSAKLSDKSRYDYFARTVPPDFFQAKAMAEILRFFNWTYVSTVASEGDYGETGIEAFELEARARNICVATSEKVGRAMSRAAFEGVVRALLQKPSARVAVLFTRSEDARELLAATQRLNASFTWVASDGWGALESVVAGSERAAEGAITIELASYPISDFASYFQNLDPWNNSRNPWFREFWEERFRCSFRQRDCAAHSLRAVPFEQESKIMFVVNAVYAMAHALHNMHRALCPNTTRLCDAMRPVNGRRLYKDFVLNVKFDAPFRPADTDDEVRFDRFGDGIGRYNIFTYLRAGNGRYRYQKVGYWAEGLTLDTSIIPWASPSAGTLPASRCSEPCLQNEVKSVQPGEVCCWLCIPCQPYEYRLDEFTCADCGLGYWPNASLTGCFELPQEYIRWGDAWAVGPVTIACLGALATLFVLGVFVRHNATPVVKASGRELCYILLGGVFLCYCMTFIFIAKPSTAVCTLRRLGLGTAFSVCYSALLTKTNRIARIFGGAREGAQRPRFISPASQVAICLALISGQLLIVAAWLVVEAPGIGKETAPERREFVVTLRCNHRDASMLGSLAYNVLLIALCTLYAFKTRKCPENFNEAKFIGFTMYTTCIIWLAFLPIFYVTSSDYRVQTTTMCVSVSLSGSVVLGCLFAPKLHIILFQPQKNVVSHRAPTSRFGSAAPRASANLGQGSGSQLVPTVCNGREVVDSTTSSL
Sequence of mGluR2 (Mus musculus, UniProt Q14BI2, A548F) (Q14BI2 19-872 A548F): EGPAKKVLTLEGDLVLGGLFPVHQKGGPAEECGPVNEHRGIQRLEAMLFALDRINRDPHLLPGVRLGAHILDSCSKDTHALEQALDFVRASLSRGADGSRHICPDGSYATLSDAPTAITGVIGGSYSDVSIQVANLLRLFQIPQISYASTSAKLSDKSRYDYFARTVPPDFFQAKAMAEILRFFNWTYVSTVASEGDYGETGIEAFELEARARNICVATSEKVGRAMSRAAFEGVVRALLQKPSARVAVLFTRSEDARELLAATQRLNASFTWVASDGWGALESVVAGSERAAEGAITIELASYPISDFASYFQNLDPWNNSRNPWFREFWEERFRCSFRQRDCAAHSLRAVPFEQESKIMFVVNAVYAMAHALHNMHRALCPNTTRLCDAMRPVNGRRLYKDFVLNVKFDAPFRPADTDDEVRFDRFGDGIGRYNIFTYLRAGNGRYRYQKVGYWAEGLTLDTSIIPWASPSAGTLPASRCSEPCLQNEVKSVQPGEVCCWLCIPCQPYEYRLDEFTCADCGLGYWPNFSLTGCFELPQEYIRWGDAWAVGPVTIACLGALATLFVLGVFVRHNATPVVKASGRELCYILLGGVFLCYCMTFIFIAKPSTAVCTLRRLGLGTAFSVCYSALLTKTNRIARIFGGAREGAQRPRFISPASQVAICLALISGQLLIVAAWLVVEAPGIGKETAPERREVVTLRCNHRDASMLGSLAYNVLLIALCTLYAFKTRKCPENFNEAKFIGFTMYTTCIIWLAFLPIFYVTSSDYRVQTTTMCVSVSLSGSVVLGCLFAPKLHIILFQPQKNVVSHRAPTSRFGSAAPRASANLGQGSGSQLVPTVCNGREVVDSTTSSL
T1 sequence (Q14BI2 19-872): as the sequence (Q14BI2 19-872 A548F) above, with F530A counted along it

azi-ECL2 - ΔEfficacy, Mean ΔEfficacy (mGluR2 [1]; [5]): -22.0861
Mean ΔPotency (mGluR2 [1]; 10μM modulator, (([modulator + glutamate]EC50 – [glutamate] EC50)/[glutamate] EC50) × 100): 179.936
Mean max response (normalized max ΔFRET) (mGluR2 [1]; azi-ECL2, 1 mM glutamate + 10 μM modulator, normalized to 1 mM glutamate): 0.78
Hill slope of glutamate titration (mGluR2 [1]; azi-ECL2 sensor, + 10 μM modulator): 1.32
Mean normalized azi-ECL2 FRET response (mGluR2 [1]; log[Glutamate] (M) -3): 0.7791
Mean normalized azi-ECL2 FRET response (mGluR2 [1]; log[Glutamate] (M) -4.1549): 0.6793
Mean normalized azi-ECL2 FRET response (mGluR2 [1]; log[Glutamate] (M) -4.52288): 0.5808
Mean normalized azi-ECL2 FRET response (mGluR2 [1]; log[Glutamate] (M) -5): 0.314
Mean normalized azi-ECL2 FRET response (mGluR2 [1]; log[Glutamate] (M) -5.82391): 0.01822
Mean normalized azi-ECL2 FRET response (mGluR2 [1]; log[Glutamate] (M) -6.52288): 0
Mean normalized azi-ECL2 FRET response (mGluR2 [1]; log[Glutamate] (M) -7): 0
Mean normalized azi-ECL2 FRET response (mGluR2 [1]; log[Glutamate] (M) -7.69897): 0
Mean normalized azi-ECL2 FRET response (mGluR2 [1]; log[Glutamate] (M) -4.69897): 0.4672
Effect on receptor activation (calcium imaging) in the presence of glutamate (mGluR2 [2]; 10 μM NAM): block receptor activation
Intracellular Ca2+ Response, % 1mM Glutamate (mGluR2 [2]; 1mM Glutamate + 15nM MNI-137, individual experiments): 73.406% and 76.302% and 82.093%
Mean ΔEfficacy of glutamate (mGluR2 [2]; Ca2+ response, 1 mM glutamate + 15 nM modulator, ([1 mM glutamate + modulator] - [1 mM glutamate]) × 100): -22.7329
ΔEfficacy of glutamate, individual experiments (mGluR2 [2]; Ca2+ response, 1 mM glutamate + 15 nM modulator, single replicate): -23.6976 and -17.9069 and -26.5942
Mean ΔPotency of glutamate (mGluR2 [2]; Ca2+ response, glutamate + 15 nM modulator, (([modulator + glutamate]EC50 – [glutamate]EC50)/[glutamate]EC50) × 100): 30.7718
ΔPotency of glutamate, individual experiments (mGluR2 [2]; Ca2+ response, glutamate + 15 nM modulator, single replicate): 55.4467 and 26.9701 and 9.898
Intracellular Ca2+ Response (normalized to 1mM glutamate), Mean (mGluR2 [2]; log[Glutamate] (M) -3): 0.7727
Intracellular Ca2+ Response (normalized to 1mM glutamate), Mean (mGluR2 [2]; log[Glutamate] (M) -3.60206): 0.7226
Intracellular Ca2+ Response (normalized to 1mM glutamate), Mean (mGluR2 [2]; log[Glutamate] (M) -4.1549): 0.6149
Intracellular Ca2+ Response (normalized to 1mM glutamate), Mean (mGluR2 [2]; log[Glutamate] (M) -4.52288): 0.4711
Intracellular Ca2+ Response (normalized to 1mM glutamate), Mean (mGluR2 [2]; log[Glutamate] (M) -5): 0.2107
Intracellular Ca2+ Response (normalized to 1mM glutamate), Mean (mGluR2 [2]; log[Glutamate] (M) -5.39794): 0.08277
Intracellular Ca2+ Response (normalized to 1mM glutamate), Mean (mGluR2 [2]; log[Glutamate] (M) -5.82391): 0.01181
Intracellular Ca2+ Response (normalized to 1mM glutamate), Mean (mGluR2 [2]; log[Glutamate] (M) -6.52288): 0
Intracellular Ca2+ Response (normalized to 1mM glutamate), Mean (mGluR2 [2]; log[Glutamate] (M) -7): 0
azi-CRD - ΔEfficacy, Mean ΔEfficacy (mGluR2 [3]; [5]): -14.0141
azi-CRD normalized FRET response, Mean (mGluR2 [3]; log[Glutamate] (M) -3): 0.8599
azi-CRD normalized FRET response, Mean (mGluR2 [3]; log[Glutamate] (M) -4.52288): 0.6022
azi-CRD normalized FRET response, Mean (mGluR2 [3]; log[Glutamate] (M) -5): 0.3809
azi-CRD normalized FRET response, Mean (mGluR2 [3]; log[Glutamate] (M) -5.39794): 0.1786
azi-CRD normalized FRET response, Mean (mGluR2 [3]; log[Glutamate] (M) -5.82391): 0.06813
azi-CRD normalized FRET response, Mean (mGluR2 [3]; log[Glutamate] (M) -6.52288): 0.03124
azi-CRD normalized FRET response, Mean (mGluR2 [3]; log[Glutamate] (M) -7): 0
azi-CRD normalized FRET response, individual cell (mGluR2 [3]; log[Glutamate] (M) -7): 0
Hill slope of glutamate titration (mGluR2 [3]; azi-CRD sensor, + 10 μM modulator): 1.10
Mean max response (normalized max ΔFRET) (mGluR2 [3]; azi-CRD, 1 mM glutamate + 10 μM modulator, normalized to 1 mM glutamate): 0.86
Mean ΔPotency (mGluR2 [3]; azi-CRD, 10μM modulator, (([modulator + glutamate]EC50 – [glutamate] EC50)/[glutamate] EC50) × 100): 19.3799
SNAP-m2 - ΔEfficacy, Mean ΔEfficacy (mGluR2 [4]; [5]): -14.5253
Mean max response (normalized max ΔFRET) (mGluR2 [4]; SNAP-m2, 1 mM glutamate + 10 μM modulator, normalized to 1 mM glutamate): 0.85
Mean ΔPotency (mGluR2 [4]; SNAP-m2, 10μM modulator, (([modulator + glutamate]EC50 – [glutamate] EC50)/[glutamate] EC50) × 100): 44.8085
Mean ΔEfficacy (mGluR2 [4]; SNAP-m2, 10μM modulator, ([1 mM glutamate + modulator] - [1 mM glutamate]) × 100): -14.5253
Hill slope of glutamate titration (mGluR2 [4]; SNAP-m2 sensor, + 10 μM modulator): –1.61
Mean normalized FRET response, SNAP-m2 NAM DRC (mGluR2 [4]; log[Glutamate] (M) -3): -0.8548
Mean normalized FRET response, SNAP-m2 NAM DRC (mGluR2 [4]; log[Glutamate] (M) -4.1549): -0.777
Mean normalized FRET response, SNAP-m2 NAM DRC (mGluR2 [4]; log[Glutamate] (M) -4.52288): -0.6231
Mean normalized FRET response, SNAP-m2 NAM DRC (mGluR2 [4]; log[Glutamate] (M) -5): -0.2568
Mean normalized FRET response, SNAP-m2 NAM DRC (mGluR2 [4]; log[Glutamate] (M) -5.82391): -0.04212
Mean normalized FRET response, SNAP-m2 NAM DRC (mGluR2 [4]; log[Glutamate] (M) -6.52288): 0
Mean normalized FRET response, SNAP-m2 NAM DRC (mGluR2 [4]; log[Glutamate] (M) -7): 0
Mean normalized FRET response, SNAP-m2 NAM DRC (mGluR2 [4]; log[Glutamate] (M) -7.69897): 0
Mean normalized FRET response, SNAP-m2 NAM DRC (mGluR2 [4]; log[Glutamate] (M) -4.69897): -0.4828
Substance: MNI-137
ΔPotency, individual cell responses (mGluR2 [1]; 10μM modulator, single cells, (([modulator + glutamate]EC50 – [glutamate] EC50)/[glutamate] EC50) × 100): 208.526 and 269.842 and 265.754 and 289.307 and 19.9066 and 99.1307 and 118.401 and 168.622
azi-CRD - ΔEfficacy, individual cell responses (mGluR2 [3]; 10μM MNI-137, single cells): -19.4456 and -7.384 and -10.1516 and 1.621 and -9.317 and -10.1717 and -14.3919 and -15.5722 and -14.8125 and -10.0435 and -13.9489 and -17.5047 and -9.853 and -8.072 and -15.0625 and -34.4877 and -19.6812 and -23.9757
azi-CRD normalized FRET response, individual cell (mGluR2 [3]; log[Glutamate] (M) -5.39794): 0.1624 and 0.1634 and 0.1646 and 0.1674 and 0.1243 and 0.1237 and 0.1526 and 0.2062 and 0.1399 and 0.1742 and 0.1692 and 0.2509 and 0.1433 and 0.1979 and 0.2166 and 0.2171 and 0.2594 and 0.1653 and 0.2159 and 0.1911 and 0.1708 and 0.1695 and 0.153
azi-CRD normalized FRET response, individual cell (mGluR2 [3]; log[Glutamate] (M) -5.82391): 0.04445 and 0.05893 and 0.04553 and 0.06348 and 0.04636 and 0.04299 and 0.07924 and 0.06124 and 0.04784 and 0.04123 and 0.06211 and 0.06632 and 0.1186 and 0.05696 and 0.08797 and 0.1273 and 0.06713 and 0.0889 and 0.0871 and 0.09832 and 0.05971 and 0.05629 and 0.07113 and 0.07112 and 0.06208 and 0.06258 and 0.06477
azi-CRD normalized FRET response, individual cell (mGluR2 [3]; log[Glutamate] (M) -6.52288): 0.0188 and 0.01987 and 0.01609 and 0.02693 and 0.05479 and 0.05033 and 0.00719 and 0.0225 and 0.06219 and 0.01914 and 0.02051 and 0.02647 and 0.05278 and 0.03127 (2×) and 0.02714 and 0.04081 and 0.0402 and 0.04434 and 0.02897 and 0.03138 and 0.03664 and 0.02295
Live-cell FRET max response normalized to 1mM glutamate (mGluR2 [3]; azi-CRD sensor, Glutamate + 10μM MNI-137, individual values (N=18)): 0.9068 and 0.8983 and 0.8561 and 0.8443 and 0.8519 and 0.8996 and 0.8605 and 0.8249 and 0.9015 and 0.9193 and 0.8494 and 0.6551 and 0.8032 and 0.7602 and 0.8055 and 0.9262 and 0.8985 and 1.016
ΔPotency, individual cell (mGluR2 [3]; azi-CRD, 10μM modulator, calculated from individual cell responses): 8.099 and 2.046 and -1.414 and 21.9358 and 9.829 and 20.2062 and 22.8006 and -4.008 and 2.91 and 8.964 and 24.5302 and 18.4766 and 6.37 and 10.6935 and 59.9867 and 17.6119 and -18.5365 and 122.252 and 0.316 and -3.143 and -10.9263 and 95.4432 and 15.0175
SNAP-m2 - ΔEfficacy, individual cell responses (mGluR2 [4]; 10μM MNI-137, single cells): -10.7213 and -26.7573 and -13.8479 and -17.3754 and -14.1858 and -21.1325 and -12.0197 and -12.3419 and -6.834 and -6.212 and -2.3686 and -0.3026 and -3.79 and -23.2696 and -18.431 and -18.5097 and -23.731 and -16.2088 and -24.4772 and -17.7281 and -7.524 and -21.7885
Live-cell FRET max response normalized to 1mM glutamate (mGluR2 [4]; SNAP-m2 sensor, Glutamate + 10μM MNI-137, individual values (N=22)): 0.8581 and 0.7887 and 0.8798 and 0.8766 and 0.9317 and 0.9379 and 0.9763 and 0.997 and 0.9621 and 0.7673 and 0.8157 and 0.8149 and 0.7627 and 0.8379 and 0.7552 and 0.8227 and 0.9248 and 0.7821 and 0.8928 and 0.7324 and 0.8615 and 0.8263
